# Measured values published in ChEMBL document CHEMBL1201862, “PubChem BioAssay data set” (2004).
# The source made the active and inactive calls.
# Legend:
# [1] = NIH-3T3 fibroblast cytotoxicity, dose response, cytotoxicity control, cell-based, fluorescence, Alamar Blue, secondary assay (AID 2327); format: functional;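 also: NIH-3T3 mouse fibroblasts cultured with fluconazole at 8 µg/mL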
# BJ [2] = test: cytotoxicity toward BJ-TERT fibroblasts, dose response, cell-based, RAS-independent, luminescence (AID 1933); format: functional; conditions: Homo sapiens
# cells [3] = format: functional, cell-based
# BJ [4] = test: cells; format: functional, cell-based; conditions: Homo sapiens
# [5] = C. albicans growth with fluconazole, confirmation, fluorescence, retest (AID 2467); format: functional, cell-based
# [6] = Luminescence-based dose response cell-based high throughput screening assay for cytotoxic compounds using the IEC-6 intestinal epithelial cell line. [Related pubchem assays: 1858 (Summary AID.), 1825 (Counterscreen.), 1907 (Confirmation screen.)]; format: functional
# cells [7] = format: functional, cell-based; remark: listed apart in the source
# [8] = molecular target: Serine/threonine-protein phosphatase (Candida dubliniensis (strain CD36 / CBS 7987 / NCPF 3949 / NRRLY-17841) (Yeast), UniProt B9W6M3); test: calcineurin pathway inhibitors in yeast reporter, dose response, S. cerevisiae, CDRE-lacZ, luminescence, secondary (AID 2388); format: functional, cell-based;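 also: yeast reporter cells carrying a calcineurin-responsive lacZ construct stimulated with calcium chloride; luminescent beta-galactosidase reporter signal in whole cells rather than isolated phosphatase activity; potency for inhibition where a drop in reporter signal means calcineurin blockade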
# Chain of Serine/threonine-protein phosphatase (B9W6M3 whole entry): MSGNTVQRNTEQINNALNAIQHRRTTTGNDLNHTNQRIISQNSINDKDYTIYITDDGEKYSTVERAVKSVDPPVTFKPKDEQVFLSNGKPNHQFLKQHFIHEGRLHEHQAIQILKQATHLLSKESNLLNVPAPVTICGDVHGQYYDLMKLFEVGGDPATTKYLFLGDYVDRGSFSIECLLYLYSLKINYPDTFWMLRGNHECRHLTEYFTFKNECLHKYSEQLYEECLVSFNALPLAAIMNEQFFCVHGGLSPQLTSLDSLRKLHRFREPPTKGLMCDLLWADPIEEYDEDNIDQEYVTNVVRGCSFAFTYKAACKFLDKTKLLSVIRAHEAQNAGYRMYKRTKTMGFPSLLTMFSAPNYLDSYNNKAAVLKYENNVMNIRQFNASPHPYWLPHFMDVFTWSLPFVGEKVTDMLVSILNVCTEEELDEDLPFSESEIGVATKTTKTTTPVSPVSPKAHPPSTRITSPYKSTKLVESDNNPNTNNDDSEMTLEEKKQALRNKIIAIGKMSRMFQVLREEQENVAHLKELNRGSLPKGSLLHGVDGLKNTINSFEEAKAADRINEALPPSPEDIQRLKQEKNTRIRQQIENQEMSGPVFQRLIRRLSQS
# BJ [9] = test: cytotoxicity toward BJ-TERT-LT-ST fibroblasts, dose response, cell-based, RAS-independent, luminescence (AID 1935); format: functional; conditions: Homo sapiens;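 also: BJ fibroblasts immortalized with TERT plus LT and ST oncogenes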
# [10] = cytotoxicity toward DRD oncogenic fibroblasts, dose response, cell-based, non-viral oncogenic, luminescence (AID 1934); format: functional; conditions: Homo sapiens
# [11] = cytotoxicity in HEK-293T cells, dose response, cytotoxicity control for TCR NF-kB inhibitor project, luminescence, T-cell screen hits (AID 489026); format: functional, cell-based;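 also: cells exposed to compound about 14 hours before the viability readout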
# HEK293 [12] = test: inhibitors of LMP1-driven NF-kB reporter, dose response, cell-based, HEK293, luciferase, cherry-pick (AID 588343); format: functional; conditions: Homo sapiens
# [13] = molecular target: Heat shock protein HSP 90-alpha (Homo sapiens, UniProt P07900); format: functional, organism-based
# HEK293 [14] = test: cytotoxicity in HEK293T NF-kB-Luc cells, SAR follow-up, cytotoxicity control for NF-kB activator project, cell-based, resazurin fluorescence (AID 493251); format: functional; conditions: Homo sapiens
# Jurkat = test: SAR Analysis of small molecule inhibitors of T-cell specific antigen receptor-induced NF-kB activation in a Jurkat cell line using a luminescence assay - Set 2. [Related pubchem assays (depositor defined):AID435003, AID435012, AID465]; format: functional, cell-based; conditions: Homo sapiens
# HEK293 [15] = test: SAR Analysis of small molecule inhibitors of T-cell specific antigen receptor-induced NF-kB activation in a HEK-293T cell line using a luminescence assay - Set 2. [Related pubchem assays (depositor defined):AID435003, AID435012, AID489026]; format: functional, cell-based; conditions: Homo sapiens
# INS1 = test: beta cell apoptosis inhibitors, cytokine rescue, dose response, luminescence, retest (AID 449756); format: functional, cell-based; conditions: Rattus norvegicus;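 also: cell death triggered by IL-1 beta plus TNF-alpha plus IFN-gamma mixture; protective hits raise ATP signal compared with cytokine alone wells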
# [16] = molecular target: ATP-dependent molecular chaperone HSP82 (Candida albicans (strain WO-1) (Yeast), UniProt C4YTQ8); test: loss of DOC-induced GRE-beta-galactosidase reporter signal, dose response, Hsp90 inhibitor project, S. cerevisiae, luminescence (AID 2400); format: functional, cell-based;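 also: beta-galactosidase luminescence from glucocorticoid response element reporter as proxy for Hsp90 function; inhibitor potency where signal loss means Hsp90 inhibition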
# Chain of ATP-dependent molecular chaperone HSP82 (C4YTQ8 whole entry): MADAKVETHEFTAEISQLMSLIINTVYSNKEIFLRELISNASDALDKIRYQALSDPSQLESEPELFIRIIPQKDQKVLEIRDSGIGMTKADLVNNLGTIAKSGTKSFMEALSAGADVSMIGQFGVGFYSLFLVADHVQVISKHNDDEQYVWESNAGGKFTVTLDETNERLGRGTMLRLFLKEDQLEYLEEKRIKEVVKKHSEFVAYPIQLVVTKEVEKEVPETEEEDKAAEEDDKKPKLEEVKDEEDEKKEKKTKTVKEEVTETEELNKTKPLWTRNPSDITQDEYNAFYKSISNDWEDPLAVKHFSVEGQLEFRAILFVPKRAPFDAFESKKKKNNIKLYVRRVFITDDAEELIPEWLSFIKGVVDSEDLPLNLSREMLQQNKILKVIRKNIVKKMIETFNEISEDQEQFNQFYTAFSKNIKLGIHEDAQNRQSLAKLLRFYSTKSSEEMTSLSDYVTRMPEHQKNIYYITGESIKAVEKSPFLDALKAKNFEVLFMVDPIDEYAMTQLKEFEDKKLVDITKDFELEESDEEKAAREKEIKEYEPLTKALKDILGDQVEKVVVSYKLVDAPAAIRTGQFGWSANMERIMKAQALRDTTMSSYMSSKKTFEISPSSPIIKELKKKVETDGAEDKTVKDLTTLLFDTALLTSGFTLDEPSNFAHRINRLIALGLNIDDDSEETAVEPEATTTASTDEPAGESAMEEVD
# [17] = Shn3 3'UTR reporter inhibitors, dose response, cell-based, Clone20 osteoblasts, firefly luciferase, cherry-picked (AID 624132); format: functional;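 also: firefly luciferase luminescence from reporter carrying the Shn3 3'UTR in osteoblasts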
# [18] = HepG2 cell cytotoxicity, dose response, cytotoxicity control for Shn3 inhibitor project, CellTiter-Glo, cherry-picked (AID 624134); format: functional, cell-based
# [19] = control 3'UTR Renilla luciferase suppression, dose response, counter-screen for Shn3 inhibitor project, cell-based, Clone20-Shn3RL, cherry-picked (AID 624133); format: functional
# [20] = molecular target: G-protein coupled receptor 55 (Homo sapiens, UniProt Q9Y2T6); test: GPR55 agonists via beta-arrestin recruitment, primary screen, imaging, U2OS cells, beta-arrestin-GFP redistribution (AID 1961); format: functional
# Chain of G-protein coupled receptor 55 (Q9Y2T6 whole entry): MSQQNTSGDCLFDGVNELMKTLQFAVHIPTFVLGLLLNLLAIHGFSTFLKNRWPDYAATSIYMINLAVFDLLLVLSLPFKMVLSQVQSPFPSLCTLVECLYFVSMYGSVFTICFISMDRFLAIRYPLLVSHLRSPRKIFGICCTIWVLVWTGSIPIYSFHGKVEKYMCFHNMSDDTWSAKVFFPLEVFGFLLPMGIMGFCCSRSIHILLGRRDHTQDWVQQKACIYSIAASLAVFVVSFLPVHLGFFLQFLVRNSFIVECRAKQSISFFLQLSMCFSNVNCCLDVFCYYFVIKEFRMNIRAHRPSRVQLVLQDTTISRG
# Hexokinase HKDC1 = molecular target: T1, Hexokinase HKDC1 (Homo sapiens, UniProt Q2TB90); test: HKDC1 hexokinase inhibitors, dose response, biochemical, W721R variant (AID 504729); format: functional
# T1 sequence (Q2TB90 whole entry): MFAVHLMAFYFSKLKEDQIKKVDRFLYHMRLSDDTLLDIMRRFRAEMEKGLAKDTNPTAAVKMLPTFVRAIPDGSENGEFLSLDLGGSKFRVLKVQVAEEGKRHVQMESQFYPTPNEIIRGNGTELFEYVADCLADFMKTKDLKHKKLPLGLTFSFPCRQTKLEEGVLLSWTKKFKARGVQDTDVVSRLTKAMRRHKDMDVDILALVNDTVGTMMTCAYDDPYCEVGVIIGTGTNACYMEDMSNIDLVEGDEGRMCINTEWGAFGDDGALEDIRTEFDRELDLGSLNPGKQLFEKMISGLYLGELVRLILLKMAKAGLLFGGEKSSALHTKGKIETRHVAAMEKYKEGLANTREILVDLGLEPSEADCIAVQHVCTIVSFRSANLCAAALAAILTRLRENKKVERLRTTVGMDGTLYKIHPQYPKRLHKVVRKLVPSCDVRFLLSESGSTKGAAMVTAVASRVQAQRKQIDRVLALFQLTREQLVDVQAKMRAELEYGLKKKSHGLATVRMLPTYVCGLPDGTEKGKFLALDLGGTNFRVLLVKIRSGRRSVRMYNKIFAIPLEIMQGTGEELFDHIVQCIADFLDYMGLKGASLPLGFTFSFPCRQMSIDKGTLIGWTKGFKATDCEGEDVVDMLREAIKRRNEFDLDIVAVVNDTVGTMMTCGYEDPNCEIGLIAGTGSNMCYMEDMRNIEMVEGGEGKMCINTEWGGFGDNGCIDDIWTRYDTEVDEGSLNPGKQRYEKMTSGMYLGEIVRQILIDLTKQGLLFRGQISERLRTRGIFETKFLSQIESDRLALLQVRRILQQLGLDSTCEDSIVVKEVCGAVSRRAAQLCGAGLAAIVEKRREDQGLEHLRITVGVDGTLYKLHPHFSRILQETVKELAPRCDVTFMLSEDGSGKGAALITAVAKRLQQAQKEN
# Vero = Vero cell cytotoxicity, cytotoxicity control for flavivirus capping enzyme inhibitors (AID 588742); format: functional; conditions: Chlorocebus sabaeus
# [21] = molecular target: DNA (cytosine-5)-methyltransferase 1 (Homo sapiens, UniProt P26358); test: DNMT1 methyltransferase inhibitors, confirmation, biochemical, fluorescent molecular beacon (AID 602386); format: functional
# [22] = Luminescent dose response cell-based high throughput screening assay for inhibitors of the Janus kinase 2 mutant JAK2V617F. [Related pubchem assays: 1446 (Primary screen.), 1521 (Confirmation assay.), 1486 (Counter screen.)]; format: functional
# [23] = molecular target: T2, Sphingosine 1-phosphate receptor 4 (Homo sapiens, UniProt O95977); test: Late stage fluorescence dose response cell-based screening assay for antagonists of the Sphingosine 1-Phosphate Receptor 4 (S1P4). [Related pubchem assays: 1524 (Confirmation screen (S1P4 antagonists).), 1510 (Primary screen (S1P4 antagonists).), 1853 (Summary AID (S1P4 antagonists).), 1692 (Dose response screen (S1P4 antagonists).)]; format: functional
# T2 sequence (O95977 whole entry): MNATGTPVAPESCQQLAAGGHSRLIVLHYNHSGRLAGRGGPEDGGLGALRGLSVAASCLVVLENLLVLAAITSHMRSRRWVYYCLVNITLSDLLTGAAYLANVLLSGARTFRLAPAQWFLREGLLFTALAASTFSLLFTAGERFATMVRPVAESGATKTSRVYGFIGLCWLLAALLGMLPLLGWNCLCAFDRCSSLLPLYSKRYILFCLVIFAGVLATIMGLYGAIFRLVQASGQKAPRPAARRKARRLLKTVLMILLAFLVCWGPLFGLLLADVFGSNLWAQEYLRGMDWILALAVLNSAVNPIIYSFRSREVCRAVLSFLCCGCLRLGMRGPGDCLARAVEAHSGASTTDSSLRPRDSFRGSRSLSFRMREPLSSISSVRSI
# [24] = molecular target: T2, Sphingosine 1-phosphate receptor 4; test: Fluorescence dose response cell-based high throughput screening assay for antagonists of the Sphingosine 1-Phosphate Receptor 4 (S1P4). [Related pubchem assays: 1524 (Confirmation in triplicates.), 1510 (Primary screen.)]; format: functional
# [25] = molecular target: Sphingosine 1-phosphate receptor 1 (Homo sapiens, UniProt P21453); format: functional;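 also: Tango beta-arrestin reporter U2OS cells stimulated with S1P near its EC80; inhibitor potency meaning antagonism of receptor activation by the natural agonist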
# [26] = molecular target: T3, Replicative DNA helicase DnaB (Mycobacterium tuberculosis, UniProt P9WMR3); test: DnaB intein splicing inhibitors, dose response, biochemical, cell-free fluorescence (AID 449749); format: functional
# T3 sequence (P9WMR3 whole entry): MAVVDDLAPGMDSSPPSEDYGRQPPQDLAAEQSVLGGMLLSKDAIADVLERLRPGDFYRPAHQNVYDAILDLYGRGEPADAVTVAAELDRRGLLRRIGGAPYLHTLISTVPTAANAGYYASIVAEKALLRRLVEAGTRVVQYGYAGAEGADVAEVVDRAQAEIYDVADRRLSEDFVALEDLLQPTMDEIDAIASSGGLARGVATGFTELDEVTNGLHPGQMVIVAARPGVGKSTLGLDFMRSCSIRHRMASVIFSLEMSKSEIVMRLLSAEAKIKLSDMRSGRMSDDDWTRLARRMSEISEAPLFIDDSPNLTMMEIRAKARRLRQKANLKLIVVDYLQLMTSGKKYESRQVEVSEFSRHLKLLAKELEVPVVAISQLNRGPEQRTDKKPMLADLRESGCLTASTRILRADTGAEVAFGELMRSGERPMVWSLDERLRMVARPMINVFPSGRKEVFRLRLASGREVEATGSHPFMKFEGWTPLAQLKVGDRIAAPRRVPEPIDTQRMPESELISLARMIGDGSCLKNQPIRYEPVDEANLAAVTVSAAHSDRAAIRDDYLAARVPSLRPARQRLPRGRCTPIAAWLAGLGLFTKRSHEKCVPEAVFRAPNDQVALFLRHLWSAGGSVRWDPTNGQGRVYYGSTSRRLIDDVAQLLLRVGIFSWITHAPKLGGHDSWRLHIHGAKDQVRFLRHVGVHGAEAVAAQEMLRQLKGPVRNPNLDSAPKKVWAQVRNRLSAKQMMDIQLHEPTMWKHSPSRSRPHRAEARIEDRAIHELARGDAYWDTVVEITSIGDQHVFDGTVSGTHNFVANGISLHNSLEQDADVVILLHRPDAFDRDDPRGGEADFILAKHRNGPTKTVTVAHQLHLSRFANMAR
# Protein RecA = molecular target: T4, Protein RecA (Mycobacterium tuberculosis, UniProt P9WHJ3); test: Fluorescence Cell-Free Homogeneous Dose Retest to Identify Inhibitors of RecA-Intein Splicing Activity. [Related pubchem assays (depositor defined):AID2097, AID2223, AID489010, AID492950]; format: functional
# T4 sequence (P9WHJ3 whole entry): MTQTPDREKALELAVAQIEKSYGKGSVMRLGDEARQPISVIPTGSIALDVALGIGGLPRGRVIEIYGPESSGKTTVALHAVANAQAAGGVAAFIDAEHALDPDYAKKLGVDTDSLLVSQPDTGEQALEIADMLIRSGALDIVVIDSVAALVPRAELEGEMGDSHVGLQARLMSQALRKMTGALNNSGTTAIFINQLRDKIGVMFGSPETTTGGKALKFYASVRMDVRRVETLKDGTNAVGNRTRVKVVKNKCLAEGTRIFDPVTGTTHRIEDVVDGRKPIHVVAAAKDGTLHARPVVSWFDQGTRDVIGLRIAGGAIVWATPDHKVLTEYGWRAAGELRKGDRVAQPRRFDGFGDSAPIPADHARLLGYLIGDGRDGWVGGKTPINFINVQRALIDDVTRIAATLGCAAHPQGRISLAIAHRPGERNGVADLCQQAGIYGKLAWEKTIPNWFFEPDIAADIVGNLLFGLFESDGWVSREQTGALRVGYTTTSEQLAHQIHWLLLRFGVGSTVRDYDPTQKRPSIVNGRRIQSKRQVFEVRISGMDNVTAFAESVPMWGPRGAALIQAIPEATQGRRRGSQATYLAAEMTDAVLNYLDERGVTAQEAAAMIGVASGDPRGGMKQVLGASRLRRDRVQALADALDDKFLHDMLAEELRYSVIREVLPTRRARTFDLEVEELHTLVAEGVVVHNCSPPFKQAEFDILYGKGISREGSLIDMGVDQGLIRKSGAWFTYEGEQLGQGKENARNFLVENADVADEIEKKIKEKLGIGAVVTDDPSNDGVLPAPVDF
# [27] = molecular target: Beta-2 adrenergic receptor (Homo sapiens, UniProt P07550); test: beta2AR agonists driving receptor internalization, dose response, cell-based, FAP fluorogen, flow cytometry, cherry pick 1 (AID 588763); format: functional
# Chain of Beta-2 adrenergic receptor (P07550 whole entry, the tested form may be a part): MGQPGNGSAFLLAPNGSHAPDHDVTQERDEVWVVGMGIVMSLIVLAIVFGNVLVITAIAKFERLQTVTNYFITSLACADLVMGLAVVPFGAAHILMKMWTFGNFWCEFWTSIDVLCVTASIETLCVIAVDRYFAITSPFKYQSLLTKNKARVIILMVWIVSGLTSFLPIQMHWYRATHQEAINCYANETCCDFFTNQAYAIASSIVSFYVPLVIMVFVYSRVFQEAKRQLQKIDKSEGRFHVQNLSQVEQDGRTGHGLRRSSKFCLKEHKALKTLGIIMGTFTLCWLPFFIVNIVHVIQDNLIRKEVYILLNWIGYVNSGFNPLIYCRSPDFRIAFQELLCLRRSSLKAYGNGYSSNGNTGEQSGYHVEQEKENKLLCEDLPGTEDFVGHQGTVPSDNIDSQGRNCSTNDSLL
# Fatty acid synthase [28] = molecular target: T5, Fatty acid synthase (Homo sapiens, UniProt P49327); test: FAS thioesterase domain inhibitors, dose response, biochemical, endpoint fluorescence intensity, uHTS hits (AID 624327); format: functional;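 also: fluorescence from hydrolysis of an O-methyl fluorescein acyl ester substrate by the enzyme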
# T5 sequence (P49327 whole entry, the tested form may be a part): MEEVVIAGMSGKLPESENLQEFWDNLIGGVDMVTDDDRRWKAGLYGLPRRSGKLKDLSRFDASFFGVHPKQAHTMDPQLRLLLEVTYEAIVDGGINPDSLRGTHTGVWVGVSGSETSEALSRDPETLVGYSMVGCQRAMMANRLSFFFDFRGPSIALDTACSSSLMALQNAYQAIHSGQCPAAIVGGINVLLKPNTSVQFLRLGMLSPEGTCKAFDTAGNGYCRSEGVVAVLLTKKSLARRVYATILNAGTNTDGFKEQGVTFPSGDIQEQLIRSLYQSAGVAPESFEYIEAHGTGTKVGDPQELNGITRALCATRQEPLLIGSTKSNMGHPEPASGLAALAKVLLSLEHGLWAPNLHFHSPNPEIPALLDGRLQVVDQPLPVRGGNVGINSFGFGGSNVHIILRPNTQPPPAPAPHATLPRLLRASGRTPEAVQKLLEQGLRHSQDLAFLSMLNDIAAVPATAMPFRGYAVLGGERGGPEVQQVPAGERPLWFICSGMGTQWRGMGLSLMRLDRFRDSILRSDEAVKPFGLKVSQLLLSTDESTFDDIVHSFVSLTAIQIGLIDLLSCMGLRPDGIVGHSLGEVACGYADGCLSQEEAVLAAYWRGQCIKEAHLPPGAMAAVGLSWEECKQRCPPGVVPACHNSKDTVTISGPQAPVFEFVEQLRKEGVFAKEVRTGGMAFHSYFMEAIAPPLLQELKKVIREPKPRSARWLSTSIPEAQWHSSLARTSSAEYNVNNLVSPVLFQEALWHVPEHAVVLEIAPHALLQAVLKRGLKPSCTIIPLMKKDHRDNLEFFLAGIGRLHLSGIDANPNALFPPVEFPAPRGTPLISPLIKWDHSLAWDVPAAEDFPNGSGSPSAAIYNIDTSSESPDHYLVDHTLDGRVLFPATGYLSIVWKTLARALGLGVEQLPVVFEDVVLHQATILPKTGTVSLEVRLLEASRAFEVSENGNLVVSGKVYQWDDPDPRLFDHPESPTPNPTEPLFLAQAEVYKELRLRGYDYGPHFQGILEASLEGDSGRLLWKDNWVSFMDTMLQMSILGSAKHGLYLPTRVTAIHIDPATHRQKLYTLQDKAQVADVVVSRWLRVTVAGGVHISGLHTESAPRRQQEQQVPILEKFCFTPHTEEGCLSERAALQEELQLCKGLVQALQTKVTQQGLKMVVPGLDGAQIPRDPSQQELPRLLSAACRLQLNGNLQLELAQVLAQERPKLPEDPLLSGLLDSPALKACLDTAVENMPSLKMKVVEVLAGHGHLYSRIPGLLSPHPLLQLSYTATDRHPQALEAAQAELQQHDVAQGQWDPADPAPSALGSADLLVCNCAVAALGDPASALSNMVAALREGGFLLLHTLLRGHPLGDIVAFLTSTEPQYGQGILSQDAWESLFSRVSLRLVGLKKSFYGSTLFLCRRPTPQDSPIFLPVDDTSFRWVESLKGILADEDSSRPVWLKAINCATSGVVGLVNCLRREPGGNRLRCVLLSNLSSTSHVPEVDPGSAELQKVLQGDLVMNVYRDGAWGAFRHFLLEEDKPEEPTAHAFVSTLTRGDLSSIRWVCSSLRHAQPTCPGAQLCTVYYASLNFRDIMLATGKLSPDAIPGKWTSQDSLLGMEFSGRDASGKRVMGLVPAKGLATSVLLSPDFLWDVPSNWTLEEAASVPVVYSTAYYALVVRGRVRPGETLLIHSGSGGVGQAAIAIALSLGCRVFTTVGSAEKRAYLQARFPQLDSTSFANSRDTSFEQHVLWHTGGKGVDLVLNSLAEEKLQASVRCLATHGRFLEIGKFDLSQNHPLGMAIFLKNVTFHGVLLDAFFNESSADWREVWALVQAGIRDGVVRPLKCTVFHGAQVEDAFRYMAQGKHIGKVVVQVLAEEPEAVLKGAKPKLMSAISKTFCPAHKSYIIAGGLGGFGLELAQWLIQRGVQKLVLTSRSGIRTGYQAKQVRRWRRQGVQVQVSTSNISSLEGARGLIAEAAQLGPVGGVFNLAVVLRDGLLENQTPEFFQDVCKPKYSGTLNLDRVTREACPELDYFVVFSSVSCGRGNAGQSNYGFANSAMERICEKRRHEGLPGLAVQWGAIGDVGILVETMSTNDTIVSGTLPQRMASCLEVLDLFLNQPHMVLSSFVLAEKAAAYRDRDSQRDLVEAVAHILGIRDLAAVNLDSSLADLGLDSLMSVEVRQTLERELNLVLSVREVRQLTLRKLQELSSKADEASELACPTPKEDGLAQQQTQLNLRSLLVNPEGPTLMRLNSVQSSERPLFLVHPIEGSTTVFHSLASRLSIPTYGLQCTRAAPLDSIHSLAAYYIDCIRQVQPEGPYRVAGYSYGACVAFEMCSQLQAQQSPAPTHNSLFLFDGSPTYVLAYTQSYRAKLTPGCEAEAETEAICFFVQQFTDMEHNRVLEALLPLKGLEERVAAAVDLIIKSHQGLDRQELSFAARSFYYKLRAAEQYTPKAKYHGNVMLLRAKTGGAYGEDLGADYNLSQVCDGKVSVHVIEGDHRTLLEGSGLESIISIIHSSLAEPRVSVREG
# Fatty acid synthase [29] = molecular target: T5, Fatty acid synthase; test: FAS thioesterase domain inhibitors, dose response, biochemical, kinetic fluorescence intensity (AID 624326); format: functional;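 also: rate of fluorescence rise from hydrolysis of a fluorogenic O-methyl fluorescein ester substrate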
compound,measurement,setting,value
CCCC(=O)NC(c1ccccc1Cl)c1ccc2cccnc2c1O (stereo not given),EC50,[1],14.6 µM (active)
same,EC50,BJ [2],1.12 µM (active)
same,EC50,cells [3],6.59 µM (active)
same,EC50,BJ [4],7.5 µM (active)
same,EC50,[5],0.656 µM (active)
same,IC50,[6],1.44 µM (active)
same,EC50,cells [7],> 350 µM (not active)
same,EC50,[8],> 180 µM (inactive)
same,EC50,BJ [9],2.49 µM (active)
same,EC50,[10],1.86 µM (inconclusive)
same,IC50,[11],> 80 µM (inactive)
same,AC50,HEK293 [12],5.2 µM (active)
same,AC50,[13],4.09 µM (active)
same,IC50,HEK293 [14],9.95 µM (active)
same,IC50,Jurkat,4.29 µM (active)
same,IC50,HEK293 [15],7.04 µM (active)
same,AC50,INS1,0.63 µM (active)
same,EC50,[16],> 150 µM (inactive)
same,AC50,[17],1.21 µM (active)
same,AC50,[18],2.66 µM (active)
same,AC50,[19],1.27 µM (active)
CCOC(=O)c1c(-n2c(C)cc(C=C3C(=O)NC(=S)NC3=O)c2C)sc2c1CCCC2,EC50,[20],> 32 µM (inactive)
same,IC50,Hexokinase HKDC1,23.1 µM (inactive)
same,AC50,[13],2.61 µM (active)
same,CC50,Vero,11.9 µM (active)
same,IC50,[21],10 µM (active)
CCCC(=O)N(C1CC(C)C(C#N)(C#N)C1(C#N)C#N)N(C)C (stereo not given),IC50,[22],0.562 µM (active)
same,IC50,[23],9.68 µM (not active)
same,IC50,[24],2.42 µM (active)
same,IC50,[25],> 49.8 µM (not active)
same,AC50,[26],1.61 µM (active)
same,EC50,Protein RecA,1.34 µM (active)
same,EC50,[27],35 µM (inactive)
same,IC50,Fatty acid synthase [28],8.18 µM (active)
same,IC50,Fatty acid synthase [29],8.51 µM (active)
